Our source for the EC50 values is patent US20260327225A1, “HETEROCYCLIC COMPOUNDS AS TRIGGERING RECEPTOR EXPRESSED ON MYELOID CELLS 2 AGONISTS AND METHODS OF USE” (VIGIL NEUROSCIENCE, INC., priority 2023, published 2026).

For the assay, the target named is T1, human TREM2 (Homo sapiens, UniProt Q9NZC2).
T1 construct: expressed in transfected cells; host or cells: HEK293T-hTREM2 cells (HEK cell line expressing human TREM2 and DAP12)
The assay is described as follows: TREM2 agonist potency by cellular phosphorylation of Syk (AlphaLisa) in HEK293T-hTREM2 cells expressing human TREM2 and DAP12. Type of assay: cell-based. How it is done:
In vitro Measurement of Triggering Receptor Expressed on Myeloid Cells 2 activity using cellular phosphorylation of Spleen Tyrosine Kinase (“Syk”) Assays
Measurement of TREM2 agonist potency was done using a HEK cell line expressing human TREM2 and DAP12 (HEK293T-hTREM2 cells). Binding of small molecules to, and activation of, TREM2 increases the phosphorylation of Syk. The resultant levels of Syk phosphorylation are measured using a commercial AlphaLisa reagent kit. To perform the assay, HEK-hTREM2 cells were plated at 14,000 cells per well in a 384 well plate, in 25 μL of complete growth media and incubated at 37° C., 5% CO2 for 20-24 hours.
Prior to the assay, test compounds were diluted in the 384 well plates in assay buffer and allowed to equilibrate for 30 minutes. Growth media was removed from cell plates by inversion on blotting paper, and 25 μL of test articles in assay buffer was added to cells. Cells were incubated for 45 minutes at room temperature. After 45 minutes, assay buffer was removed and 10 μL of lysis buffer was added. Plates were shaken for 20 minutes at 350 RPM at room temperature. After complete lysis, AlphaLisa reagents were added to the lysate, and fluourescence intensity was measured using a Perkin Elmer Envision plate reader. Intensities were used to generate a standard curve, and % activation was calculated. Curve fitting was performed using Prism v9 software, log(agonist) vs response—variable slope (four parameters), and EC50s were calculated from the curve fit.
The results presented in Table B have been generated with the in vitro assay described above. This assay may be used to test any of the compounds described herein to assess and characterize a compound's ability to act as an agonist of TREM2.

Setting [1] is: HEK293 cells expressing hTREM2 and DAP12, 45 minutes at room temperature, Syk phosphorylation, AlphaLisa, read-out: hTREM2 EC50.

Where two headings read alike, the source gives them in different places.

T1 sequence (Q9NZC2 19-230): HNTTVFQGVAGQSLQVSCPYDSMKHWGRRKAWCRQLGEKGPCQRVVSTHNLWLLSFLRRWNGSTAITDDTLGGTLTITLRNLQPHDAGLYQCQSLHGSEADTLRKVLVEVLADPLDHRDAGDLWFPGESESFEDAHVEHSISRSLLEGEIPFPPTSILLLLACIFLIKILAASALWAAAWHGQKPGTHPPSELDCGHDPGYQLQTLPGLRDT
T1 sequence (O43914 22-113 partner): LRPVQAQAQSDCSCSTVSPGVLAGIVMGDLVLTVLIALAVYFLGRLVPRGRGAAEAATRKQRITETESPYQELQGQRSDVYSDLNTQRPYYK

In general, EC50 refers to the concentration needed to bring the measured effect to its halfway point. For the molecule `Cc1cc2c(-c3ccc(C(F)(F)F)cc3F)nc([C@H]3CCO[C@@H](c4cnn(C5CC5)c4)C3)nc2c(=O)n1C` [Example 136, 2-[(2R,4S)-2-(1-cyclopropylpyrazol-4-yl)tetrahydropyran-4-yl]-4-[2-fluoro-4-(trifluoromethyl)phenyl]-6,7-dimethyl-pyrido[3,4-d]pyrimidin-8-one], under setting [1], the EC50 is less than 100 nM.

Regarding `Cc1nc2nc([C@H]3CCO[C@@H](c4cnn(C5CC5)c4)C3)nc(C34CC(C(F)(F)F)(C3)C4)c2cc1F` [Example 24, 2-[(2R,4S)-2-(1-cyclopropylpyrazol-4-yl)tetrahydropyran-4-yl]-6-fluoro-7-methyl-4-[3-(trifluoromethyl)-1-bicyclo[1.1.1]pentanyl]-pyrido[2,3-d]pyrimidine], under setting [1], the EC50 is less than 100 nM.

Consider `Cc1nc2nc([C@H]3CCO[C@@H](c4cnn(C5CC5)c4)C3)nc(C34CC(C(F)(F)F)(C3)C4)c2cc1C#N` [Example 29, 2-[(2R,4S)-2-(1-cyclopropylpyrazol-4-yl)tetrahydropyran-4-yl]-7-methyl-4-[3-(trifluoromethyl)-1-bicyclo[1.1.1]pentanyl]pyrido[2,3-d]pyrimidine-6-carbonitrile], for which the EC50 under setting [1] is less than 100 nM.

Consider `Cc1nc2nc(C3CCOC(c4ccc5ncnn5c4)C3)nc(-c3ccc(F)cc3F)c2nc1C` (stereo not shown) [Example 95], for which the EC50 under setting [1] was less than 100 nM.

As for `Cc1cc2cc(C3CC(c4nc(-c5ccc(F)cc5F)c5nc(C)c(C)nc5n4)CCO3)ccn2n1` (stereo not shown) [Example 116, 4-(2,4-difluorophenyl)-6,7-dimethyl-2-[2-(2-methylpyrazolo-[1,5-a]pyridin-5-yl)tetrahydropyran-4-yl]pteridine], the EC50 under setting [1] is less than 100 nM.

`Cc1nc2nc(N3C[C@@H](C)O[C@@H](c4cnn(C5CC5)c4)C3)nc(-c3ccc(F)cc3F)c2cc1C(=O)O` [Example 3, 2-[(2S,6R)-2-(1-cyclopropylpyrazol-4-yl)-6-methyl-morpholin-4-yl]-4-(2,4-difluorophenyl)-7-methyl-pyrido[2,3-d]pyrimidine-6-carboxylic acid]: under setting [1], the EC50 was greater than 500 nM.

With `COCn1cc([C@H]2CN(c3nc(C45CC(C(F)(F)F)(C4)C5)c4cc(C#N)c(C)nc4n3)C[C@@H](C)O2)cn1` [Example 71], the EC50 under setting [1] was less than 100 nM.

Regarding `Cc1nc2nc([C@H]3CCO[C@@H](c4cnn(C5CC5)c4)C3)nc(C34CC(C#N)(C3)C4)c2nc1C` [Example 119, 3-(2-((2R,4S)-2-(1-cyclopropyl-1H-pyrazol-4-yl)tetrahydro-2H-pyran-4-yl)-6,7-dimethylpteridin-4-yl)bicyclo[1.1.1]pentane-1-carbonitrile], the EC50 under setting [1] fell in the range of 100 to 500 nM.

As for `COc1ncc([C@H]2C[C@@H](c3nc(C45CC(C(F)(F)F)(C4)C5)c4nc(C)c(C)nc4n3)CCO2)s1` (racemic) [Example 117, 2-methoxy-5-[rac-(2R,4S)-4-[6,7-dimethyl-4-[3-(trifluoromethyl)-1-bicyclo[1.1.1]pentanyl]pteridin-2-yl]tetrahydropyran-2-yl]thiazole], the EC50 under setting [1] is less than 100 nM.

As to `Cc1nc2nc(N3C[C@@H](C)O[C@@H](c4cnn(C5CC5)c4)C3)nc(C34CC(C#N)(C3)C4)c2nc1C` [Example 102, 3-[2-[(2S,6R)-2-(1-cyclopropylpyrazol-4-yl)-6-methyl-morpholin-4-yl]-6,7-dimethyl-pteridin-4-yl]bicyclo[1.1.1]pentane-1-carbonitrile], the EC50 under setting [1] is less than 100 nM.

`Cc1nc2nc(N3C[C@@H](C)O[C@@H](c4cnn(C5CC5)c4)C3)nc(C34CC(C(F)(F)F)(C3)C4)c2nc1C1COC1` [Example 84, (2S,6R)-2-(1-cyclopropyl-pyrazol-4-yl)-6-methyl-4-[7-methyl-6-(oxetan-3-yl)-4-[3-(trifluoromethyl)-1-bicyclo[1.1.1]pentanyl]-pteridin-2-yl]morpholine]: the EC50 under setting [1] is less than 100 nM.

As to `Cc1cc2c(-c3ccccc3)nc(N3C[C@@H](C)O[C@@H](c4cnn(C5CC5)c4)C3)nc2nc1C` [Example 68, (2S,6R)-2-(1-cyclopropylpyrazol-4-yl)-4-(6,7-dimethyl-4-phenylpyrido[2,3-d]pyrimidin-2-yl)-6-methyl-morpholine], the EC50 is less than 100 nM.

In the case of `Cc1nc2ccc(C3CC(c4nc(-c5ccc(F)cc5F)c5nc(C)c(C)nc5n4)CCO3)cc2s1` (stereo not shown) [Example 115, 6-[4-[4-(2,4-difluorophenyl)-6,7-dimethyl-pteridin-2-yl]tetrahydropyran-2-yl]-2-methyl-1,3-benzothiazole], the EC50 under setting [1] is less than 100 nM.

Consider `Cc1nc2nc(N3C[C@@H](C)O[C@@H](c4cnn(C5CC5)c4)C3)nc(C3CCC3)c2cc1C#N` [Example 42, 4-cyclobutyl-2-((2S,6R)-2-(1-cyclopropyl-1H-pyrazol-4-yl)-6-methylmorpholino)-7-methylpyrido[2,3-d]pyrimidine-6-carbonitrile], for which the EC50 under setting [1] lay in the range of 100 to 500 nM.

Take `Cc1nc2nc(N3C[C@@H](C)O[C@@H](c4cnn(C5CC5)c4)C3)nc(C34C5C6C7C5C3C7C64)c2nc1C` (stereo partly drawn) [Example 121, (2S,6R)-4-(4-cuban-1-yl-6,7-dimethyl-pteridin-2-yl)-2-(1-cyclopropylpyrazol-4-yl)-6-methyl-morpholine]: the EC50 under setting [1] lay within 100 to 500 nM.

On to `Cc1nc2nc(N3C[C@@H](C)O[C@@H](c4cnn(C(F)F)c4)C3)nc(C34CC(C(F)(F)F)(C3)C4)c2cc1C#N` [Example 66, 2-[(2S,6R)-2-[1-(difluoromethyl)pyrazol-4-yl]-6-methyl-morpholin-4-yl]-7-methyl-4-[3-(trifluoromethyl)-1-bicyclo[1.1.1]pentanyl]pyrido[2,3-d]pyrimidine-6-carbonitrile], for which the EC50 under setting [1] is less than 100 nM.

In the case of `Cc1nc2nc([C@@H]3CCO[C@@H](c4ccnc(N(C)C)c4)C3)nc(C34CC(C(F)(F)F)(C3)C4)c2nc1C` (racemic) [Example 125, N,N-dimethyl-4-[rac-4-[6,7-dimethyl-4-[3-(trifluoromethyl)-1-bicyclo[1.1.1]pentanyl]pteridin-2-yl]tetrahydropyran-2-yl]pyridin-2-amine], under setting [1], the EC50 lay in the range of 100 to 500 nM.

As to `Cc1nc2nc([C@H]3CCO[C@@H](c4ccnc(N(C)C)c4)C3)nc(C34CC(C(F)(F)F)(C3)C4)c2nc1C` (racemic) [Example 124, N,N-dimethyl-4-[rac-4-[6,7-dimethyl-4-[3-(trifluoromethyl)-1-bicyclo[1.1.1]pentanyl]pteridin-2-yl]tetrahydropyran-2-yl]pyridin-2-amine], under setting [1], the EC50 is less than 100 nM.

Consider `Cc1cc2c(-c3cccs3)nc(N3C[C@@H](C)O[C@@H](c4cnn(C5CC5)c4)C3)nc2nc1C` [Example 69, (2S,6R)-2-(1-cyclopropyl-pyrazol-4-yl)-4-[6,7-dimethyl-4-(2-thienyl)pyrido-[2,3-d]pyrimidin-2-yl]-6-methyl-morpholine], for which, under setting [1], the EC50 fell in the range of 100 to 500 nM.

For `Cc1nc2nc(C3CCOC(c4cnnc(N(C)C)c4)C3)nc(C34CC(C(F)(F)F)(C3)C4)c2nc1C` (racemic) [Example 130, N,N-dimethyl-5-[rac-trans-4-[6,7-dimethyl-4-[3-(trifluoromethyl)-1-bicyclo[1.1.1]pentanyl]pteridin-2-yl]tetrahydropyran-2-yl]pyridazin-3-amine], the EC50 under setting [1] lay within 100 to 500 nM.

Take `Cc1cnc(-c2cc3c(-c4ccc(F)cc4F)nc(N4C[C@@H](C)O[C@@H](c5cnn(C6CC6)c5)C4)nc3nc2C)o1` [Example 13, (2S,6R)-2-(1-cyclopropylpyrazol-4-yl)-4-[4-(2,4-difluorophenyl)-7-methyl-6-(5-methyloxazol-2-yl)pyrido[2,3-d]pyrimidin-2-yl]-6-methyl-morpholine]: the EC50 under setting [1] was less than 100 nM.

In the case of `CC1Cc2c(nc([C@H]3CCO[C@@H](c4cnn(C5CC5)c4)C3)nc2-c2ccc(C(F)(F)F)cc2F)C(=O)N1C` (stereo partly drawn) [Example 138, 2-[(2R,4S)-2-(1-cyclopropylpyrazol-4-yl)tetrahydropyran-4-yl]-4-[2-fluoro-4-(trifluoromethyl)phenyl]-6,7-dimethyl-5,6-dihydropyrido[3,4-d]pyrimidin-8-one formic acid], the EC50 under setting [1] is greater than 500 nM.

On to `Cc1nc2nc(N3C[C@@H](C)O[C@@H](c4cnn(C5CC5)c4)C3)nc(C34CC(C(F)F)(C3)C4)c2cc1C#N` [Example 73, 2-((2S,6R)-2-(1-cyclopropyl-1H-pyrazol-4-yl)-6-methylmorpholino)-4-(3-(difluoromethyl)bicyclo[1.1.1]pentan-1-yl)-7-methylpyrido[2,3-d]pyrimidine-6-carbonitrile], for which the EC50 under setting [1] is less than 100 nM.

As for `Cc1nc2ccc(C3CC(c4nc(-c5ccc(F)cc5F)c5nc(C)c(C)nc5n4)CCO3)cc2o1` (stereo not shown) [Example 113, 6-[4-[4-(2,4-difluorophenyl)-6,7-dimethyl-pteridin-2-yl]tetrahydropyran-2-yl]-2-methyl-1,3-benzoxazole], the EC50 under setting [1] was less than 100 nM.

For `Cc1noc(-c2cc3c(C4CCCCC4)nc(N4CCO[C@@H](c5cnn(C)c5)C4)nc3nc2C)n1` [Example 44, (2S)-4-[4-cyclohexyl-7-methyl-6-(3-methyl-1,2,4-oxadiazol-5-yl)-pyrido [2,3-d]-pyrimidin-2-yl]-2-(1-methyl-pyrazol-4-yl) morpholine], the EC50 under setting [1] lay in the range of 100 to 500 nM.
